Data on 31 compounds can be found in patent US9340537B2, “Benzamide derivatives for inhibiting the activity of ABL1, ABL2 and BCR-ABL1” (NOVATIS AG, priority 2012, dated 2016).

For test [1], the target named is T1, ABL1 (64-515) (Homo sapiens (Human), UniProt P00519). As to the kind of experiment: Caliper ABL1 (64-515) microfluidic mobility shift kinase assay. The following applies: read-out: Caliper ABL1 (64-515) IC50.
In test [2] the target is T1, ABL1 (64-515). As to the kind of experiment: Radio ABL1 (64-515) radiometric filter-binding kinase assay. Type of test: biochemical. The following applies: 20 μM ATP.
Protocol: Pre-incubation of enzyme with compounds (when stated) was performed by exposing the enzyme to compounds prior to addition of the substrate mixture (ATP and/or peptide substrate). […] Filter-plates were washed 3× with 0.5% H3PO4, followed by addition of 30 μL scintillation cocktail (Microscint, Perkin Elmer) per well and then analysed in a TopCount NXT scintillation counter (Perkin Elmer). Results were expressed as IC50 values.

T1 sequence (P00519 64-515): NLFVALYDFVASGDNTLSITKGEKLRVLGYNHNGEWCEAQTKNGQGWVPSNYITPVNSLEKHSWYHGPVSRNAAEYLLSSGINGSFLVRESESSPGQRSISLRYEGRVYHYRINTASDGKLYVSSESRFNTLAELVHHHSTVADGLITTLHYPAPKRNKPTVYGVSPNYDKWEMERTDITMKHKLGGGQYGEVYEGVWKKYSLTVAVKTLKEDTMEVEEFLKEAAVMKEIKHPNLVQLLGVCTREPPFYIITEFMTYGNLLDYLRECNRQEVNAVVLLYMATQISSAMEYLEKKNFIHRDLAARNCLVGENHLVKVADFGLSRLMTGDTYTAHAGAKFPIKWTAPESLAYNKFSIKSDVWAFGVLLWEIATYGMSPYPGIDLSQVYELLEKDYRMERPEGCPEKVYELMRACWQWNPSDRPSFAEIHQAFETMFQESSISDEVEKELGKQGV

The IC50 is the concentration that inhibits the measured activity by half. As for `CO[C@H]1CN(c2ccc(C(=O)Nc3ccc(OC(F)(F)F)cc3)cc2-c2cncs2)C[C@@H]1O` (relative stereo) [Example 4, 4-(trans-3-Hydroxy-4-methoxypyrrolidin-1-yl)-3-(thiazol-5-yl)-N-(4-(trifluoromethoxy)phenyl)benzamide], the half-maximal inhibitory concentration (IC50) at ABL1 (64-515) [1] was 4.2 nM; on ABL1 (64-515) [2], 4 nM.

As for `O=C(Nc1ccc(OC(F)(F)F)cc1)c1cnc(N2C[C@H](CO)[C@@H](O)C2)c(-c2cncs2)c1` (relative stereo) [Example 17, 6-(trans-3-Hydroxy-4-(hydroxymethyl)pyrrolidin-1-yl)-5-(thiazol-5-yl)-N-(4-(trifluoromethoxy)phenyl)nicotinamide], the IC50 at ABL1 (64-515) [1] came to 1.4 nM; at ABL1 (64-515) [2] it was 10 nM.

Regarding `N[C@@H]1CN(c2ncc(C(=O)Nc3ccc(OC(F)(F)Cl)cc3)cc2-c2ccn[nH]2)C[C@H]1F` (relative stereo) [Example 52, 6-(trans-3-Amino-4-fluoropyrrolidin-1-yl)-N-(4-(chlorodifluoromethoxy)phenyl)-5-(1H-pyrazol-5-yl)nicotinamide], the IC50 on ABL1 (64-515) [1] is 3.4 nM; on ABL1 (64-515) [2], 3 nM.

As to `O=C(Nc1ccc(OC(F)(F)F)cc1)c1cnc(N2C[C@H](O)[C@@H](F)C2)c(-c2ccn[nH]2)c1` (relative stereo) [Example 74, 6-(trans-3-Fluoro-4-hydroxypyrrolidin-1-yl)-5-(1H-pyrazol-5-yl)-N-(4-(trifluoromethoxy)phenyl)nicotinamide], the IC50 at ABL1 (64-515) [1] was found to be 3.7 nM.

As to `CO[C@H]1CN(c2ncc(C(=O)Nc3ccc(OC(F)(F)F)cc3)cc2-c2ccn[nH]2)C[C@@H]1N` (relative stereo) [Example 78, 6-(trans-3-Amino-4-methoxypyrrolidin-1-yl)-5-(1H-pyrazol-5-yl)-N-(4-(trifluoromethoxy)phenyl)nicotinamide], the IC50 came to 3.6 nM at ABL1 (64-515) [1] and 4 nM on ABL1 (64-515) [2].

For `CO[C@H]1CN(c2ncc(C(=O)Nc3ccc(OC(F)(F)Cl)cc3)cc2-c2ccn[nH]2)C[C@@H]1N` (relative stereo) [Example 79, 6-(trans-3-Amino-4-methoxypyrrolidin-1-yl)-N-(4-(chlorodifluoromethoxy)phenyl)-5-(1H-pyrazol-5-yl)nicotinamide], the figures for the IC50 at ABL1 (64-515) [1] and on ABL1 (64-515) [2] were 0.7 nM and 1 nM, respectively.

In the case of `NC[C@H]1CN(c2ncc(C(=O)Nc3ccc(OC(F)(F)Cl)cc3)cc2-c2ccn[nH]2)C[C@H]1O` (relative stereo) [Example 80, 6-(cis-3-(Aminomethyl)-4-hydroxypyrrolidin-1-yl)-N-(4-(chlorodifluoromethoxy)phenyl)-5-(1H-pyrazol-5-yl)nicotinamide], the 50% inhibitory concentration (IC50) is less than 0.13 nM at ABL1 (64-515) [1] and 0.4 nM at ABL1 (64-515) [2].

Take `O=C(Nc1ccc(OC(F)(F)F)cc1)c1cnc(N2CC[C@@H](O)C2)c(-c2cnoc2)c1` [Example 8, (R)-6-(3-Hydroxypyrrolidin-1-yl)-5-(isoxazol-4-yl)-N-(4-(trifluoromethoxy)phenyl)nicotinamide]: the half-inhibitory concentration (IC50) on ABL1 (64-515) [2] was found to be 9 nM.

Take `O=C(Nc1ccc(OC(F)(F)F)cc1)c1cnc(N2CC[C@@H](O)C2)c(-c2nccs2)c1` [Example 9, (R)-6-(3-Hydroxypyrrolidin-1-yl)-5-(thiazol-2-yl)-N-(4-(trifluoromethoxy)phenyl)nicotinamide]: the half-inhibitory concentration (IC50) on ABL1 (64-515) [2] stood at 10 nM.

In turn, `Cc1ncc(-c2cc(C(=O)Nc3ccc(OC(F)(F)F)cc3)cnc2N2CC[C@@H](O)C2)s1` [Example 11, (R)-6-(3-Hydroxypyrrolidin-1-yl)-5-(2-methylthiazol-5-yl)-N-(4-(trifluoromethoxy)phenyl)nicotinamide] registered an IC50 at ABL1 (64-515) [2] of less than 3 nM.

For `O=C(Nc1ccc(OC(F)(F)F)cc1)c1cnc(N2CC[C@@H](O)C2)c(-c2csc(CO)c2)c1` [Example 12, (R)-5-(5-(Hydroxymethyl)thiophen-3-yl)-6-(3-hydroxypyrrolidin-1-yl)-N-(4-(trifluoromethoxy)phenyl)nicotinamide], at ABL1 (64-515) [2], the IC50 is less than 3 nM.

As for `O=C(Nc1ccc(OC(F)(F)F)cc1)c1cnc(N2CCCC2)c(-c2ccn[nH]2)c1` [Example 15, 5-(1H-Pyrazol-5-yl)-6-(pyrrolidin-1-yl)-N-(4-(trifluoromethoxy)phenyl)nicotinamide], the IC50 at ABL1 (64-515) [1] is 0.8 nM; on ABL1 (64-515) [2], less than 3 nM.

For the compound `Cc1ncc(-c2cc(C(=O)Nc3ccc(OC(F)(F)F)cc3)cnc2N2CC[C@H](CO)C2)s1` [Example 16, (S)-6-(3-(Hydroxymethyl)pyrrolidin-1-yl)-5-(2-methylthiazol-5-yl)-N-(4-(trifluoromethoxy)phenyl)nicotinamide], the IC50 is 1.1 nM at ABL1 (64-515) [1] and less than 3 nM on ABL1 (64-515) [2].

As to `O=C(Nc1ccc(OC(F)(F)F)cc1)c1cnc(N2CCOCC2)c(-c2ccn[nH]2)c1` [Example 18, 6-Morpholino-5-(1H-pyrazol-5-yl)-N-(4-(trifluoromethoxy)phenyl)nicotinamide], the IC50 on ABL1 (64-515) [1] is 6.5 nM; at ABL1 (64-515) [2], 5 nM.

In the case of `CN(CCO)c1ccc(C(=O)Nc2ccc(OC(F)(F)F)cc2)cc1-c1cncs1` [Example 20, 4-((2-Hydroxyethyl)(methyl)amino)-3-(thiazol-5-yl)-N-(4-(trifluoromethoxy)phenyl)benzamide], the IC50 was 5 nM at ABL1 (64-515) [1] and less than 3 nM on ABL1 (64-515) [2].

Consider `CN(CCO)c1ncc(C(=O)Nc2ccc(OC(F)(F)Cl)cc2)cc1-c1ccn[nH]1` [Example 23, N-(4-(Chlorodifluoromethoxy)phenyl)-6-((2-hydroxyethyl)(methyl)amino)-5-(1H-pyrazol-5-yl)nicotinamide], for which the figures for the IC50 on ABL1 (64-515) [1] and on ABL1 (64-515) [2] were 3.4 nM and 2.7 nM, respectively.

As to `O=C(Nc1ccc(SC(F)(F)F)cc1)c1cnc(N2CC[C@@H](O)C2)c(-c2ccc[nH]2)c1` [Example 25, (R)-6-(3-Hydroxypyrrolidin-1-yl)-5-(1H-pyrrol-2-yl)-N-(4-((trifluoromethyl)thio)phenyl)nicotinamide], the results for the IC50 on ABL1 (64-515) [1] and on ABL1 (64-515) [2] were 2.6 nM and 3.7 nM, respectively.

`CN(CCO)c1ncc(C(=O)Nc2ccc(SC(F)(F)F)cc2)cc1-c1ccn[nH]1` [Example 26, 6-((2-Hydroxyethyl)(methyl)amino)-5-(1H-pyrazol-5-yl)-N-(4-((trifluoromethyl)thio)phenyl)nicotinamide]: the figures for the IC50 at ABL1 (64-515) [1] and on ABL1 (64-515) [2] were 1 nM and 11 nM, respectively.

In the case of `O=C(Nc1ccc(OC(F)(F)F)cc1)c1cnc(N2CCCC2)c(-c2cc(CO)n[nH]2)c1` [Example 43, 5-(3-(Hydroxymethyl)-1H-pyrazol-5-yl)-6-(pyrrolidin-1-yl)-N-(4-(trifluoromethoxy)phenyl)nicotinamide], at ABL1 (64-515) [1], the IC50 is 3.3 nM.

With `O=C(Nc1ccc(OC(F)(F)Cl)cc1)c1cnc(N2CCC(F)(F)C2)c(-c2ccn[nH]2)c1` [Example 48, N-(4-(Chlorodifluoromethoxy)phenyl)-6-(3,3-difluoropyrrolidin-1-yl)-5-(1H-pyrazol-5-yl)nicotinamide], the IC50 at ABL1 (64-515) [2] was found to be 5.5 nM.

With `O=C(Nc1ccc(OC(F)(F)Cl)cc1)c1cnc(N2CCC3(CNC3)C2)c(-c2ccn[nH]2)c1` [Example 50, N-(4-(Chlorodifluoromethoxy)phenyl)-5-(1H-pyrazol-5-yl)-6-(2,6-diazaspiro[3.4]octan-6-yl)nicotinamide], the half-inhibitory concentration (IC50) at ABL1 (64-515) [2] was 1.3 nM.

Turning to `NCC1(O)CCN(c2ncc(C(=O)Nc3ccc(OC(F)(F)Cl)cc3)cc2-c2ccn[nH]2)C1` (centres unmarked) [Example 83, 6-(3-(Aminomethyl)-3-hydroxypyrrolidin-1-yl)-N-(4-(chlorodifluoromethoxy)phenyl)-5-(1H-pyrazol-5-yl)nicotinamide], the IC50 on ABL1 (64-515) [1] came out at 0.4 nM.

`O=C(O)CCNc1ncc(C(=O)Nc2ccc(OC(F)(F)Cl)cc2)cc1-c1ccn[nH]1` [Example 94, 3-((5-((4-(Chlorodifluoromethoxy)phenyl)carbamoyl)-3-(1H-pyrazol-5-yl)pyridin-2-yl)amino)propanoic acid]: the IC50 on ABL1 (64-515) [1] turned out to be 23 nM.

Take `O=C(O)CCNc1ncc(C(=O)Nc2ccc(OC(F)(F)F)cc2)cc1-c1ccn[nH]1` [Example 95, 3-((3-(1H-Pyrazol-5-yl)-5-((4-(trifluoromethoxy)phenyl)carbamoyl)pyridin-2-yl)amino)propanoic acid]: the IC50 on ABL1 (64-515) [1] came to 47 nM.

Regarding `O=C(Nc1ccc(OC(F)(F)Cl)cc1)c1cnc(NCCC(O)C(=O)O)c(-c2ccn[nH]2)c1` (centres unmarked) [Example 96, 4-((5-((4-(Chlorodifluoromethoxy)phenyl)carbamoyl)-3-(1H-pyrazol-5-yl)pyridin-2-yl)amino)-2-hydroxybutanoic acid], on ABL1 (64-515) [1], the half-maximal inhibitory concentration (IC50) came out at 5.3 nM.

As for `O=C(Nc1ccc(OC(F)(F)Cl)cc1)c1cnc(NCC(O)CCO)c(-c2ccn[nH]2)c1` (centres unmarked) [Example 97, N-(4-(Chlorodifluoromethoxy)phenyl)-6-((2,4-dihydroxybutyl)amino)-5-(1H-pyrazol-5-yl)nicotinamide], the IC50 at ABL1 (64-515) [1] is 5.7 nM.

On to `O=C(Nc1ccc(OC(F)(F)Cl)cc1)c1cnc(NC[C@@H](O)CCO)c(-c2ccn[nH]2)c1` [Example 98, (S)—N-(4-(Chlorodifluoromethoxy)phenyl)-6-((2,4-dihydroxybutyl)amino)-5-(1H-pyrazol-5-yl)nicotinamide], for which the IC50 at ABL1 (64-515) [1] was found to be 5.7 nM.

On to `O=C(Nc1ccc(OC(F)(F)Cl)cc1)c1cnc(NC[C@H](O)CCO)c(-c2ccn[nH]2)c1` [Example 99, (R)—N-(4-(Chlorodifluoromethoxy)phenyl)-6-((2,4-dihydroxybutyl)amino)-5-(1H-pyrazol-5-yl)nicotinamide], for which the half-inhibitory concentration (IC50) at ABL1 (64-515) [1] stood at 5.1 nM.

Consider `O=C(Nc1ccc(OC(F)(F)Cl)cc1)c1cnc(NCCC(O)CO)c(-c2ccn[nH]2)c1` (centres unmarked) [Example 100, N-(4-(Chlorodifluoromethoxy)phenyl)-6-((3,4-dihydroxybutyl)amino)-5-(1H-pyrazol-5-yl)nicotinamide], for which the IC50 on ABL1 (64-515) [1] turned out to be 6.6 nM.

Turning to `O=C(Nc1ccc(OC(F)(F)Cl)cc1)c1cnc(NCC[C@H](O)CO)c(-c2ccn[nH]2)c1` [Example 101, (S)—N-(4-(Chlorodifluoromethoxy)phenyl)-6-((3,4-dihydroxybutyl)amino)-5-(1H-pyrazol-5-yl)nicotinamide], on ABL1 (64-515) [1], the concentration for half-maximal inhibition (IC50) is 7.8 nM.

In the case of `O=C(Nc1ccc(OC(F)(F)Cl)cc1)c1cnc(NCC[C@@H](O)CO)c(-c2ccn[nH]2)c1` [Example 102, (R)—N-(4-(Chlorodifluoromethoxy)phenyl)-6-((3,4-dihydroxybutyl)amino)-5-(1H-pyrazol-5-yl)nicotinamide], the IC50 at ABL1 (64-515) [1] came out at 13 nM.
